Experimental data published in patent US20100137275A1 (IPSEN PHARMA S.A.S., priority 2007, published 2010).

Columns and labels:
[1] = molecular target: T1, purified recombinant Cdc25-C enzyme (MBP-Cdc25C protein) (Homo sapiens, UniProt P30307); assay: Phosphatase activity of the purified recombinant Cdc25C enzyme (OMFP dephosphorylation, fluorescence); type: biochemical; conditions: OMFP 500 μM, 4 hours at 30° C.
T1 construct: made in house
T1 sequence (P30307 1-473): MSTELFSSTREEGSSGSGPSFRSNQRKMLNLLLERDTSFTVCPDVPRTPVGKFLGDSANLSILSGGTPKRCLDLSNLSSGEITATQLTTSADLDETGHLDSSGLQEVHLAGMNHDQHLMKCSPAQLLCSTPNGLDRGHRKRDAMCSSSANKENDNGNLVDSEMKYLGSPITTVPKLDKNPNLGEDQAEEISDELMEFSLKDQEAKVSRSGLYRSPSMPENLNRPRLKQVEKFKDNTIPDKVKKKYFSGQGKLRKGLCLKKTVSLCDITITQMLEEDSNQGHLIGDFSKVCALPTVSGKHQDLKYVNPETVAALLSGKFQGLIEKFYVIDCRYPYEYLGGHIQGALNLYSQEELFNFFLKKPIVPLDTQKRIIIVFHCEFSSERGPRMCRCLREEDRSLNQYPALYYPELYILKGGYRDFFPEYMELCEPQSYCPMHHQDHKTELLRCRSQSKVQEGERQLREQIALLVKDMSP
Protocol: The phosphatase activity of the MBP-Cdc25C protein is evaluated through its dephosphorylation of 3-O-methylfluorescein-phosphate (OMFP) to form 3-O-methylfluorescein (OMF), determining the fluorescence of the reaction product at 475 nm. This assay can be used to identify inhibitors of the recombinant Cdc25 enzyme. The preparation of the MBP-Cdc25C fusion protein is described in patent application PCT WO 01/44467.
The reaction is performed in 384-well plates in a final volume of 50 μl. The MBP-Cdc25C protein (prepared as described hereinabove) is stored in the following elution buffer: 20 mM Tris-HCl pH 7.4; 250 mM NaCl; 1 mM EDTA; 1 mM dithiothreitol (DTT); 10 mM maltose. It is diluted to a concentration of 60 μM in the following reaction buffer: 50 mM Tris-HCl pH 8.2; 50 mM NaCl; 1 mM DTT; 20% glycerol. The background noise is determined using with the buffer without addition of the enzyme. The products are tested at decreasing concentrations from 40 μM. The reaction is initiated by the addition of a solution OMFP to a final concentration of 500 μM (prepared immediately before use from a 12.5 mM stock solution in 100% DMSO (Sigma #M2629)). After 4 hours at 30° C. in a disposable 384-well plate, the fluorescence measured at OD 475 nm is read on a Victor^2 plate reader (EGG-Wallac). The concentration that produces 50% inhibition of the enzyme reaction is calculated from three independent experiments. Only the values that fall within the linear part of the sigmoid curve are used for the linear regression analysis.

| melting point [°C] | IC50 [1] [µM] | SMILES |
| --- | --- | --- |
| 107 to 109 | ≤ 1 | CN(CCNC(=S)Nc1ccc(C#N)cc1)CCNc1cc(N2CCCC2)nc(N2CCCC2)n1 [Example 77, N-(4-cyanophenyl)-N′-{2-[{2-[(2,6-dipyrrolidin-1-ylpyrimidin-4-yl)amino]ethyl}(methyl)amino]ethyl}thiourea] |
| – | ≤ 5 | CN(C)CCCCCNc1cc(N2CCCC2)nc(N2CCCC2)n1 [Example 5, N′-(2,6-dipyrrolidin-1-ylpyrimidin-4-yl)-N,N-dimethylpentane-1,5-diamine] |
| 116 to 118 | ≤ 5 | CN(CCNC(=S)Nc1ccc(N2CCOCC2)nc1)CCNc1cc(N2CCCC2)nc(N2CCCC2)n1 [Example 32, N-{2-[{2-[(2,6-dipyrrolidin-1-ylpyrimidin-4-yl)amino]ethyl}(methyl)amino]ethyl}-N′-(6-morpholin-4-ylpyridin-3-yl)thiourea] |
| – | ≤ 5 | NCCCCCNc1cc(N2CCCC2)nc(N2CCCC2)n1 [Example 4, N-(2,6-dipyrrolidin-1-ylpyrimidin-4-yl)pentane-1,5-diamine] |
| 87 to 89 | ≤ 5 | CN(CCNC(=O)NCc1ccccc1)CCNc1cc(N2CCCC2)nc(N2CCCC2)n1 [Example 8, N-benzyl-N′-{2-[{2-[(2,6-dipyrrolidin-1-ylpyrimidin-4-yl)amino]ethyl}(methyl)amino]ethyl}urea] |
| – | ≤ 1 | CN(CCNC(=O)Nc1ccc(Cl)c(C(F)(F)F)c1)CCNc1cc(N2CCCC2)nc(N2CCCC2)n1 [Example 7, N-[4-chloro-3-(trifluoromethyl)phenyl]-N′-{2-[{2-[(2,6-dipyrrolidin-1-ylpyrimidin-4-yl)amino]ethyl}(methyl)amino]ethyl}urea] |
| 120 to 122 | ≤ 5 | CN(CCNC(=S)NCC1CCCO1)CCNc1cc(N2CCCC2)nc(N2CCCC2)n1 (stereo not shown) [Example 31, N-{2-[{2-[(2,6-dipyrrolidin-1-ylpyrimidin-4-yl)amino]ethyl}(methyl)amino]ethyl}-N′-(tetrahydrofuran-2-ylmethyl)thiourea] |
| – | ≤ 5 | CCN(CC)CCCCCNc1cc(N2CCCC2)nc(N2CCCC2)n1 [Example 6, N′-(2,6-dipyrrolidin-1-ylpyrimidin-4-yl)-N,N-diethylpentane-1,5-diamine] |
| 127 to 129 | – | CCN(CCN(C)CCNc1cc(N2CCCC2)nc(N2CCCC2)n1)C(N)=O [Example 18, N-{2-[{2-[(2,6-dipyrrolidin-1-ylpyrimidin-4-yl)amino]ethyl}(methyl)amino]ethyl}-N-ethylurea] |
| – | ≤ 1 | CCN(CC)c1cc(NCCN(C)CCNC(=S)Nc2ccc(Cl)cc2)nc(N(CC)CC)n1 [Example 71, N-{2-[(2-{[2,6-bis(diethylamino)pyrimidin-4-yl]amino}ethyl)(methyl)amino]ethyl}-N′-(4-chlorophenyl)thiourea] |
| 79 to 81 | ≤ 5 | O=C(NCCOCCNc1cc(N2CCCC2)nc(N2CCCC2)n1)Nc1ccc(Cl)c(C(F)(F)F)c1 [Example 20, N-[4-chloro-3-(trifluoromethyl)phenyl]-N′-(2-{2-[(2,6-dipyrrolidin-1-ylpyrimidin-4-yl)amino]ethoxy}ethyl)urea] |
| 127 to 129 | ≤ 1 | CN(CCNC(=S)Nc1ccc(Cl)cc1)CCNc1cc(N2CCCC2)nc(N2CCCC2)n1 [Example 22, N-(4-chlorophenyl)-N′-{2-[{2-[(2,6-dipyrrolidin-1-ylpyrimidin-4-yl)amino]ethyl}(methyl)amino]ethyl}thiourea] |
| 120 to 122 | ≤ 1 | CN(CCNC(=NC#N)Nc1ccc(Cl)cc1)CCNc1cc(N2CCCC2)nc(N2CCCC2)n1 [Example 81, N-(4-chlorophenyl)-N″-cyano-N′-{2-[{2-[(2,6-dipyrrolidin-1-ylpyrimidin-4-yl)amino]ethyl}(methyl)amino]ethyl}guanidine] |
| 95 to 97 | ≤ 1 | Cc1noc(C)c1NC(=O)NCCN(C)CCNc1cc(N2CCCC2)nc(N2CCCC2)n1 [Example 13, N-(3,5-dimethylisoxazol-4-yl)-N′-{2-[{2-[(2,6-dipyrrolidin-1-ylpyrimidin-4-yl)amino]ethyl}(methyl)amino]ethyl}urea] |
| 119 to 121 | ≤ 5 | CN(CCNC(=O)NC1CCCC1)CCNc1cc(N2CCCC2)nc(N2CCCC2)n1 [Example 12, N-cyclopentyl-N′-{2-[{2-[(2,6-dipyrrolidin-1-ylpyrimidin-4-yl)amino]ethyl}(methyl)amino]ethyl}urea] |
| 171 to 173 | ≤ 5 | COc1ccc(C(=O)NC(=S)NCCN(C)CCNc2cc(N3CCCC3)nc(N3CCCC3)n2)cc1 [Example 80, N-[({2-[{2-[(2,6-dipyrrolidin-1-ylpyrimidin-4-yl)amino]ethyl}(methyl)amino]ethyl}amino)carbonothioyl]-4-methoxybenzamide] |
| – | ≤ 5 | CN(CCCN)CCCNc1cc(N2CCCC2)nc(N2CCCC2)n1 [Example 2, N-(3-aminopropyl)-N′-(2,6-dipyrrolidin-1-ylpyrimidin-4-yl)-N-methylpropane-1,3-diamine] |
| 92 to 94 | ≤ 5 | CN(CCNC(=S)Nc1c(F)c(F)c(F)c(F)c1F)CCNc1cc(N2CCCC2)nc(N2CCCC2)n1 [Example 34, N-{2-[{2-[(2,6-dipyrrolidin-1-ylpyrimidin-4-yl)amino]ethyl}(methyl)amino]ethyl}-N′-(pentafluorophenyl)thiourea] |
| 146 to 148 | ≤ 5 | CN(CCNC(=S)Nc1ccc(Cl)c(F)c1)CCNc1cc(N2CCCC2)nc(N2CCCC2)n1 [Example 56, N-(4-chloro-3-fluorophenyl)-N′-{2-[{2-[(2,6-dipyrrolidin-1-ylpyrimidin-4-yl)amino]ethyl}(methyl)amino]ethyl}thiourea] |
| 146 to 148 | – | CN(CCNC(=O)c1cnc2ccccc2n1)CCNc1cc(N2CCCC2)nc(N2CCCC2)n1 [Example 82, N-{2-[{2-[(2,6-dipyrrolidin-1-ylpyrimidin-4-yl)amino]ethyl}(methyl)amino]ethyl}quinoxaline-2-carboxamide] |
| 119 to 121 | ≤ 5 | CN(CCNC(=O)c1ccc(C(=O)c2ccccc2)cc1)CCNc1cc(N2CCCC2)nc(N2CCCC2)n1 [Example 83, 4-benzoyl-N-{2-[{2-[(2,6-dipyrrolidin-1-ylpyrimidin-4-yl)amino]ethyl}(methyl)amino]ethyl}benzamide] |
| 146 to 148 | ≤ 1 | CN(CCNC(=S)Nc1ccc([N+](=O)[O-])cc1)CCNc1cc(N2CCCC2)nc(N2CCCC2)n1 [Example 43, N-{2-[{2-[(2,6-dipyrrolidin-1-ylpyrimidin-4-yl)amino]ethyl}(methyl)amino]ethyl}-N′-(4-nitrophenyl)thiourea] |
| 93 to 95 | – | CN(CCNc1cc(N2CCCC2)nc(N2CCCC2)n1)CCN(C(N)=O)[C@@H]1CCc2ccccc2C1 [Example 11, N-{2-[{2-[(2,6-dipyrrolidin-1-ylpyrimidin-4-yl)amino]ethyl}(methyl)amino]ethyl}-N-[(2R)-1,2,3,4-tetrahydronaphthalen-2-yl]urea] |
| 115 to 117 | – | CN(CCCNC(=O)Nc1ccc(Cl)c(C(F)(F)F)c1)CCCNc1cc(N2CCCC2)nc(N2CCCC2)n1.Cl |
| 85 to 87 | – | FC(F)(F)c1cc(NC(=S)NCCCCCNc2cc(N3CCCC3)nc(N3CCCC3)n2)ccc1Cl [Example 57, N-[4-chloro-3-(trifluoromethyl)phenyl]-N′-{5-[(2,6-dipyrrolidin-1-ylpyrimidin-4-yl)amino]pentyl}thiourea] |
| 211 to 213 | – | CN(CCNC(=S)Nc1ccc(Cl)cc1)CCNc1cc(N2CCCC2)nc(N2CCCC2)n1.Cl |
| – | ≤ 5 | CNCCCN(C)CCCN(C)c1cc(N2CCCC2)nc(N2CCCC2)n1 [Example 3, N-(2,6-dipyrrolidin-1-ylpyrimidin-4-yl)-N,N′-dimethyl-N′-[3-(methylamino)propyl]propane-1,3-diamine] |
| 81 to 83 | – | CN(CCNC(=S)Nc1ccc(Cl)cc1)CCNc1cc(N2CCOCC2)nc(N2CCOCC2)n1 [Example 66, N-(4-chlorophenyl)-N′-{2-[{2-[(2,6-dimorpholin-4-ylpyrimidin-4-yl)amino]ethyl}(methyl)amino]ethyl}thiourea] |

| SMILES | melting point [°C] | IC50 [1] [µM] |
| --- | --- | --- |
| CCNC(=O)NCCN(C)CCNc1cc(N2CCCC2)nc(N2CCCC2)n1 [Example 18] | – | ≤ 5 |
